One data set relates to RTL-W1 cell line. Kind of data set: RTL-W1 alamar blue/resazurin assay (mitochondria function). The data set is classed as cell-based, rainbow trout. Conditions: for EC50: Oncorhynchus mykiss, RTL-W1, Alamar blue/Resazurin assay, 48 h incubation; for effect on general metabolism and mitochondrial activity (in words): RTL-W1. The protocol: The RTL-W1 cell line, a non-transformed rainbow trout liver cell line that has already been used in environmental toxicity assays, was established from the normal liver of an adult rainbow trout by proteolytic dissociation of liver fragments. RTL-W1 cells were cultured in 75 cm^2 culture flasks (Orange Scientific, Braine l’Alleud, Belgium) at 20 °C in Leibovitz’s (L-15, Sigma-Aldrich, St. Louis, MO, USA) medium supplemented with 5% fetal bovine serum (FBS) and 1% L-glutamine in CO2-free incubator. For the cytotoxicity assays of the selected secondary metabolites, cells were seeded at 3 × 10^4 cells/well density in a 96-well tissue culture plate (Orange Scientific Braine l’Alleud, Belgium) in 100 μL culture medium/well for 2 days before the assays. Three different cytotoxicity protocols were used: 1) The alamar blue/resazurin fluorometric/colorimetric cell viability assay to assess the metabolic capacity and mitochondrial function; 2) the crystal violet cell viability assay for indirect quantification of cell death; and 3) the neutral red cell proliferation assay for lysosomal activity. Two days after seeding the cells, cultures were incubated with various concentrations of selected secondary metabolites at 20 °C for 48 h before cell viability was assessed. […] For the alamar blue/resazurin fluorometric/colorimetric cell viability assay, 100 μL of 3 μg/100 μL Resazurin sodium salt (Sigma-Aldrich, St. Louis, MO, USA) in incubation medium was added on each well and incubated under sterile conditions at 20 °C for 4 h. For the crystal violet cell viability assay, after 48 h of incubation with each secondary metabolite, the culture medium was aspirated and cells were washed twice with sterile dd. H2O. The final wash was aspirated and 50 μL of 0.5% (w/v) crystal violet staining solution (20% methanol in dd. H2O) was added to each well followed by incubation for 20 min at room temperature on a bench rocker with a frequency of 20 oscillations per minute. The staining solution was then aspirated and the plate was washed four times with sterile dd. H2O and left to air-dry without its lid for 3 h at room temperature. Next, 200 μL of methanol was added to each well, and the plate was incubated with its lid on for 20 min at room temperature on a bench rocker with a frequency of 20 oscillations per minute. For the neutral red cell proliferation assay, after 48 h of incubation with each secondary metabolite, the culture medium was aspirated and cells were washed twice with phosphate-buffered saline (PBS, pH 7.4). Cells were then incubated with 100 μL of a 40 μg/mL neutral red staining solution in culture medium at 20 °C for 4 h followed by two washes with 150 μL of PBS. Then cells were incubated with 100 μL neutral red destain solution (50% ethanol, 49% dd. H2O, 1% glacial acetic acid) for 10 min on a bench rocker with a frequency of 80 oscillations per minute. Absorbance was read at 570 nm for alamar blue/resazurin and crystal violet and at 540 nm for neutral red using a Tecan infinite M200 Pro microplate reader. For each assay and each secondary metabolite, a minimum of four independent dose–response experiments with three replicates each were carried out. Calculations were carried out using detailed formulas (AbCam, Cambridge, UK, and results were analyzed with GraphPad Prism v.6.
(§1) For EC50 or IC50 (the concentration that results in 50% stimulation or inhibition relative to the control) calculations in GraphPad Prism v.6, all data were fitted to the curve according to the following models for normalized response: Y = 100/(1 + 10^((X − LogIC50))) or Y = 100/(1 + 10^((LogEC50 − X))) depending on the trend of the curve.
In general terms: The colour change of resazurin is a common sign of viable cells or microbes.

The subject of a further data set is cyprids of A. amphitrite. Kind of data set: whole plant or invertebrate. The data set is classed as in vivo. Conditions: for EC50 / IC50: Amphibalanus amphitrite; for EC50: read-out: EC50 No Metamorphosis; for EC50 values for settlement inhibition of barnacle cyprids (in words): consistently, 24-72 h. The protocol:
(§2) Adult A. amphitrite (Cirripedia, Balanidae) were collected from boat docks at Port Mikrolimano and Floisvos, Athens, Greece. Animals were cleaned of epibionts with a small hard brush and meticulously identified as individuals of the species. Adult barnacles were kept in separate aerated glass tanks (20 L) containing 200-μm filtered natural seawater at 27 °C and a 12:12 L:D photoperiod. Tanks were fed with 24-h hatched Artemia sp. (Branchiopoda) nauplii and Tetraselmis suecica (Chlorodendrophyceae) and Skeletonema costatum (Bacillariophyceae) algae each day and seawater was changed on alternate days. Upon stress to induce oviposition (exposure to air for 24 h or immersion in fresh water for 5 h), adults were returned to seawater for larval release. Hatched nauplii were attracted to a point light source, collected and placed into a beaker containing 2 or 3 L of 0.7 μm GF/F (GE Healthcare, Little Chalfont, UK )-filtered natural seawater at a density of approximately 1–2 nauplii/mL with gentle aeration. Nauplii were maintained at 27 °C at a 12:12 L:D photoperiod on a diet of C. gracilis (Bacillariophyceae) provided at a density of 2 × 10^5 cells/mL. Cultured in these conditions, nauplii metamorphosed to cyprids in 5 days. Aliquots of these cyprids were collected with a wide-mouthed Pasteur pipette and aged at 4 °C for 1 day prior to use in settlement assays. Only batches of cyprids that were active and had numerous oil cells, representing energy reserves, were used in settlement assays.
(§3) Assays were conducted by adding 10 cyprids into individual wells of a 24-well polystyrene sterile microplate (Orange Scientific, Braine l’Alleud, Belgium) with 2 mL of artificial sea water (ASW) (25‰) and various concentrations of the chemical compounds as listed in Table 1. These experiments were repeated at least three times with four replicates for each concentration of any given compound (n = 120 cyprids/compound). Stock solutions for all compounds were prepared in methanol (Scharlab, Barcelona, Spain) and serial dilutions were prepared in 0.7 μm (GF/F, GE Healthcare, Little Chalfont, UK), filtered sea water to have a final concentration of 2.5% methanol in each assay solution. Plates were covered and sealed with Parafilm® to avoid evaporation and incubated at 25 °C away from any light source and examined after 24, 48 and 72 h. Each animal was inspected under a stereomicroscope and its condition was recorded. […] Both permanently attached and metamorphosed individuals were counted as settled or juveniles. The remainder were counted as ‘no metamorphosis’, i.e. animals that responded to light touch and were still cyprids at the end of the experiments with no overt signs of metamorphosis.
as §1

A short description of another data set: in vivo. The data set is classed as in vivo. Conditions: Amphibalanus amphitrite, in vivo, read-out: LC50 Mortality; for LC50 at 24 h: 24 h exposure; for LC50 at 48 h: 48 h exposure; for LC50 at 72 h: 72 h exposure. The protocol: as §2, §3, §1
Setting [1] is: 24 h, read-out: IC50 Settlement.
Setting [2] is: 48 h, read-out: IC50 Settlement.
Where [3] appears, read: 72 h, read-out: IC50 Settlement.

Read-outs that look alike come from different tables or passages of the source.

With `CC(C)[C@@H]1CC=C[C@H]2[C@H]3[C@](C)(CC[C@]12CBr)[C@@H](Br)CC[C@@]3(C)O` [Bromosphaerol, reference compound], the EC50 (in general, the concentration at which the effect is half-maximal) was above 1000 µM in the data set with RTL-W1 cell line, 0.45 µM in the data set on cyprids of A. amphitrite (24 h), 0.267 µM in the data set with cyprids of A. amphitrite (48 h) and 0.561 µM in the data set on cyprids of A. amphitrite (72 h). Moreover, the half-inhibitory concentration (IC50) (as a rule, the midpoint of a concentration-inhibition curve) in the data set on cyprids of A. amphitrite (setting [1]) was 0.58 µM; with cyprids of A. amphitrite (setting [2]), 0.624 µM; with cyprids of A. amphitrite (setting [3]), 0.836 µM. In addition, the “animals not progressing to metamorphosis” value in the data set on cyprids of A. amphitrite (in vivo) was “large percentage of animals not progressing to metamorphosis”. For the same compound, the LC50 (as a rule, the concentration that kills 50% of the test population) at 24 h in the data set “in vivo” was 17.9 µM. Moreover, in the data set “in vivo”, the LC50 at 48 h was 4.57 µM. In the data set “in vivo”, the LC50 at 72 h worked out at 2.5 µM.

Regarding `C=CC(C)(O)CC[C@@H]1C(=C)CC[C@@H](Br)[C@@]1(C)CCC1OC1(C)C` (stereo partly drawn) [Compound 18], the EC50 in the data set on RTL-W1 cell line was above 1000 µM; in the data set on cyprids of A. amphitrite (24 h) it was 45.4 µM; with cyprids of A. amphitrite (48 h), 50.4 µM; with cyprids of A. amphitrite (72 h), 48.5 µM. Further, the “effect on general metabolism and mitochondrial activity (in words)” value (“effect” below) with RTL-W1 cell line is on record as “none of the three tested metabolites had an effect”. Also, the IC50 was 0.046 µM in the data set on cyprids of A. amphitrite (setting [1]), 0.076 µM in the data set on cyprids of A. amphitrite (setting [2]) and 0.316 µM in the data set with cyprids of A. amphitrite (setting [3]). In addition, the “EC50 values for settlement inhibition of barnacle cyprids (in words)” value (from here on “EC50 values for settlement inhibition”) with cyprids of A. amphitrite is reported as “sub-micromolar”. Further, the LC50 at 24 h in the data set “in vivo” was 26.2 µM. In the data set “in vivo”, the LC50 at 48 h worked out at 26.3 µM. The 50% lethal concentration (LC50) at 72 h in “in vivo” turned out to be 20.3 µM.

Take `C=C(C1CCC(C)(O)C(Br)C1)C1C(Br)C2C(CCC2(C)O)C1(C)C` (stereo not drawn) [Compound 19, neorogioldiol]: the EC50 in the data set on RTL-W1 cell line was above 1000 µM; in the data set on cyprids of A. amphitrite (24 h), 52.8 µM; with cyprids of A. amphitrite (48 h), 57.9 µM; with cyprids of A. amphitrite (72 h), 70.4 µM. Also, the “effect” value with RTL-W1 cell line is recorded as “none of the three tested metabolites had an effect”. In addition, the values for the half-inhibitory concentration (IC50) in the data set with cyprids of A. amphitrite (setting [1]), in the data set with cyprids of A. amphitrite (setting [2]) and in the data set on cyprids of A. amphitrite (setting [3]) were 0.4 µM, 0.915 µM and 0.756 µM, respectively. The “EC50 values for settlement inhibition” value with cyprids of A. amphitrite was “sub-micromolar”. Besides, the LC50 at 24 h in “in vivo” is 413 µM. For the same compound, the LC50 at 48 h in “in vivo” stood at 366 µM. Further, the LC50 at 72 h in “in vivo” amounted to 573 µM.

Consider `CC1=C2CC[C@@](C)(Cl)[C@@H](Br)C[C@]2(C)[C@@H](C)[C@@H](Br)[C@@H]1O` [Compound 9, perforenol], for which the EC50 was above 1000 µM with RTL-W1 cell line, 38.2 µM in the data set with cyprids of A. amphitrite (24 h), 47.4 µM in the data set with cyprids of A. amphitrite (48 h) and 57.8 µM in the data set on cyprids of A. amphitrite (72 h). For the same compound, the “effect” value in the data set with RTL-W1 cell line is recorded as “none of the three tested metabolites had an effect”. Moreover, the IC50 in the data set with cyprids of A. amphitrite (setting [1]) was 0.52 µM; in the data set with cyprids of A. amphitrite (setting [2]) it was 0.66 µM; in the data set on cyprids of A. amphitrite (setting [3]) it was 0.5 µM; in the data set with cyprids of A. amphitrite (read-out: IC50 settlement-inhibiting activity), around 0.5 µM. The “EC50 values for settlement inhibition” value with cyprids of A. amphitrite is listed as “sub-micromolar”. In “in vivo”, the LC50 at 24 h was 76.2 µM. The LC50 at 48 h in the data set “in vivo” amounted to 116 µM. For the same compound, the LC50 at 72 h in the data set “in vivo” came to 49.1 µM.

The record behind these values is publication PMC6891695, “Evaluation of Antifouling Potential and Ecotoxicity of Secondary Metabolites Derived from Red Algae of the Genus Laurencia” (Marine Drugs, 2019).
